# Source: patent US9475789B2, “Use of polyenylpyrrole derivatives for treating inflammation” (WELLHEAD BIOLOGICAL TECHNOLOGY CORP., priority 2014, dated 2016)
# “Also recorded” adds a separate entry of the source.
# How the values were obtained:
# TNF-α [1] = test: TNF-α ELISA, LPS-activated JAWSII dendritic cells; assay type: cell-based, murine; details: LPS 1 μg/ml 24 h
# Description: (§1) (A) J774A.1 macrophages (4×10^5/ml), (B) peritoneal macrophages (4×10^5/ml), and (C) JAWSII dendritic cells (4×10^5/ml) were incubated with compound 1h or DMSO for 30 min followed by stimulating with LPS (1 μg/ml) for 24 h, then IL-6 and TNF-α concentration in culture medium were assayed by ELISA. The data are expressed as the mean±SD for three separate experiments. *, **, and *** indicate a significant difference at the level of p<0.05, p<0.01, p<0.001 respectively compared to LPS group.
# (§2) The effects of tested samples on IL-1β, TNF-α and IL-6 production were measured by ELISA according to the manufacturer's instruction. In brief, 50 μl of biotinylated antibody reagent and 50 μl of supernatant were added to an anti-mouse IL-1β, TNF-α and IL-6 precoated stripwell plate, and incubated at room temperature for 2 h. After washing the plate three times with washing buffer, 100 μl of diluted streptavidin-HRP concentrate was added to each well and incubated at room temperature for 30 min. The washing process was repeated; then 100 μl of a premixed tetramethylbenzidine substrate solution was added to each well and developed at room temperature in the dark for 30 min. Following the addition of 100 μl of stop solution to each well to stop the reaction, the absorbance of the plate was measured by a microplate reader at 450 nm wavelength.
# ROS = test: Intracellular ROS production, ATP-activated J774A.1 macrophages; assay type: cell-based, murine
# Description: In (A), J774A.1 macrophages (1×10^6/ml) were incubated with LPS (1 μg/ml) for 5.5 h and then incubated with compound 1 h ([…]), DPI (100 μM), or DMSO (vehicle) for 30 min followed by ATP (5 mM) stimulating for the indicated time, then ROS levels were measured by detection of the fluorescence intensity of the fluorophore carboxyl-DCF and expressed relative to those at time zero. In (B), J774A.1 macrophages (1×10^6/ml) were incubated with compound 1h (20 μM), DPI (100 μM), or DMSO (vehicle) for 30 min followed by LPS (1 μg/ml) stimulating for 5.5 h, then the cells were stimulated with ATP (5 mM) for the indicated time. The ROS levels were measured by detection of the fluorescence intensity of the fluorophore carboxyl-DCF and expressed relative to those at time zero. In (C), LPS-primed J774A.1 macrophages (1×10^6/ml) were incubated with compound 1h (20 μM) or DMSO (vehicle) for 30 min followed by ATP (5 mM) stimulating for 0-60 min, then the phosphorylation level of PKC-α was analyzed by Western blot.
# Intracellular ROS stimulated by LPS was measured by detecting the fluorescence intensity of the 2′,7′-dichlorofluorescein diacetate (H2DCFDA) oxidized product (DCF) (Molecular Probes, Eugene, Oreg.). […]
# IL-6 [2] = test: IL-6 ELISA, LPS-activated JAWSII dendritic cells; assay type: cell-based, murine; details: LPS 1 μg/ml 24 h
# Description: as §1, §2
# ERK1/2, JNK1/2, p38 = test: Western blot of MAPK phosphorylation, LPS-activated J774A.1 macrophages; assay type: cell-based, murine; details: LPS-activated J774A.1, LPS 20 min
# Description: In (A), RAW 264.7 macrophages (5×10^5/ml) were incubated with compound 1h (20 μM), N-acetyl cysteine (NAC; 10 mM) or DMSO (vehicle) for 30 min followed by LPS (1 μg/ml) stimulating for the indicated time, then ROS levels were measured by detection of the fluorescence intensity of the fluorophore carboxyl-DCF and expressed relative to those at time zero. In (B), RAW 264.7 macrophages (5×10^5/ml) were incubated with compound 1h (20 μM) or DMSO for 30 min followed by LPS (1 μg/ml) stimulating for 0-60 min, then the phosphorylation levels of ERK1/2, JNK1/2, p38 were analyzed by Western blot. In (C), J774A.1 macrophages (5×10^5/ml) were incubated with compound 1h or DMSO for 30 min followed by LPS (1 μg/ml) stimulating for 20 min, then the phosphorylation levels of ERK1/2, JNK1/2, p38 were analyzed by Western blot.
# (§3) Whole cell lysates were separated by SDS-PAGE and electrotransferred to a PVDF membrane. The membranes were incubated in blocking solution—5% nonfat milk in phosphate buffered saline with 0.1% Tween 20—at room temperature for 1 h. Each membrane was incubated with a specific primary antibody at room temperature for 2 h. After washing three times in PBS with 0.1% Tween 20, the membrane was incubated with an HRP-conjugated secondary antibody directed against the primary antibody. The membrane was developed by an enhanced chemiluminescence Western blot detection system.
# TNF-α [3] = test: TNF-α ELISA, LPS-activated peritoneal macrophages; assay type: cell-based, C57BL/6 mice; details: LPS 1 μg/ml 24 h
# Description: as §1, §2
# iNOS = test: Western blot of iNOS protein in LPS-activated RAW 264.7 macrophages; assay type: cell-based, murine; details: LPS-activated RAW 264.7, compared with vehicle
# Description: In (A) and (C), cells (5×10^5/ml) were incubated with polyenylpyrrole derivatives or DMSO (vehicle) for 30 min followed by stimulating with LPS (1 μg/ml) for 24 h, then NO (A), IL-6 and TNF-α (C) concentration in culture medium were assayed by Griess reaction and ELISA, respectively. In (B), cells (5×10^5/ml) were pretreated with polyenylpyrrole derivatives or DMSO for 30 min followed by stimulating with LPS (1 μg/ml) for 24 h, then the protein expression of iNOS and COX-2 were assayed by Western blot.
# as §3
# IL-6 [4] = test: IL-6 ELISA, LPS-activated peritoneal macrophages; assay type: cell-based, C57BL/6 mice; details: LPS 1 μg/ml 24 h
# Description: as §1, §2
structure (smiles),measurement,setting,value
O=c1cc(O)cc(/C=C/C=C/C=C/C=C/c2[nH]ccc2Cl)o1 [Compound 1h],secretion of TNF-α,TNF-α [1],also reduced
same,ATP-induced ROS production,"ROS; J774A.1, compound 1h 20 μM added before LPS priming",inhibited ATP-induced ROS production significantly
same,ATP-induced ROS production,"ROS; LPS-primed J774A.1, compound 30 min before ATP stimulation",reduces ATP-induced ROS production slightly
same,secretion of IL-6,IL-6 [2],also reduced
same,"phosphorylation levels of ERK1/2, JNK1/2, p38","ERK1/2, JNK1/2, p38",confirmed
same,secretion of TNF-α,TNF-α [3],reduced
same,expression of iNOS protein,iNOS,decreased production; also recorded: reduced the expression of iNOS protein
same,secretion of IL-6,IL-6 [4],reduced
